{
  "source": "patent US11725011B2",
  "about": "“Bicyclic urea kinase inhibitors and uses thereof” (The Broad Institute, Inc., priority 2016, dated 2023)",
  "test_in_all_cases": "KINOMEscan",
  "format_in_all_cases": "binding",
  "details_in_all_cases": "1 uM",
  "key": {"MET": {"biological_target": "MET (Homo sapiens (Human), UniProt P08581)"}, "EGFR (E746-A750del)": {"biological_target": "EGFR (E746-A750del) (Homo sapiens (Human), UniProt P00533, DEL746-750)"}, "PAK1": {"biological_target": "PAK1 (Homo sapiens (Human), UniProt Q13153)"}, "CSNK1D": {"biological_target": "CSNK1D (Homo sapiens (Human), UniProt P48730)"}, "DYRK1A": {"biological_target": "DYRK1A (Homo sapiens (Human), UniProt Q13627)"}, "DCAMKL1": {"biological_target": "DCAMKL1 (Homo sapiens (Human), UniProt O15075)"}, "BIKE": {"biological_target": "BIKE (Homo sapiens (Human), UniProt Q9NSY1)"}, "MST1": {"biological_target": "MST1 (Homo sapiens (Human), UniProt Q13043)"}, "YES": {"biological_target": "YES (Homo sapiens (Human), UniProt P07947)"}, "NEK9": {"biological_target": "NEK9 (Homo sapiens (Human), UniProt Q8TD19)"}, "BRSK1": {"biological_target": "BRSK1 (Homo sapiens (Human), UniProt Q8TDC3)"}, "FLT3 (D835Y)": {"biological_target": "FLT3 (D835Y) (Homo sapiens (Human), UniProt P36888, D835Y)"}, "PIK3CA (H1047L)": {"biological_target": "PIK3CA (H1047L) (Homo sapiens (Human), UniProt P42336, H1047L)"}, "PLK4": {"biological_target": "PLK4 (Homo sapiens (Human), UniProt O00444)"}, "WEE2": {"biological_target": "WEE2 (Homo sapiens (Human), UniProt P0C1S8)"}, "MEK3": {"biological_target": "MEK3 (Homo sapiens (Human), UniProt P46734)"}, "TEC": {"biological_target": "TEC (Homo sapiens (Human), UniProt P42680)"}, "CAMK2A": {"biological_target": "CAMK2A (Homo sapiens (Human), UniProt Q9UQM7)"}, "MAP3K1": {"biological_target": "MAP3K1 (Homo sapiens (Human), UniProt Q13233)", "sequence (Q13233 whole entry)": "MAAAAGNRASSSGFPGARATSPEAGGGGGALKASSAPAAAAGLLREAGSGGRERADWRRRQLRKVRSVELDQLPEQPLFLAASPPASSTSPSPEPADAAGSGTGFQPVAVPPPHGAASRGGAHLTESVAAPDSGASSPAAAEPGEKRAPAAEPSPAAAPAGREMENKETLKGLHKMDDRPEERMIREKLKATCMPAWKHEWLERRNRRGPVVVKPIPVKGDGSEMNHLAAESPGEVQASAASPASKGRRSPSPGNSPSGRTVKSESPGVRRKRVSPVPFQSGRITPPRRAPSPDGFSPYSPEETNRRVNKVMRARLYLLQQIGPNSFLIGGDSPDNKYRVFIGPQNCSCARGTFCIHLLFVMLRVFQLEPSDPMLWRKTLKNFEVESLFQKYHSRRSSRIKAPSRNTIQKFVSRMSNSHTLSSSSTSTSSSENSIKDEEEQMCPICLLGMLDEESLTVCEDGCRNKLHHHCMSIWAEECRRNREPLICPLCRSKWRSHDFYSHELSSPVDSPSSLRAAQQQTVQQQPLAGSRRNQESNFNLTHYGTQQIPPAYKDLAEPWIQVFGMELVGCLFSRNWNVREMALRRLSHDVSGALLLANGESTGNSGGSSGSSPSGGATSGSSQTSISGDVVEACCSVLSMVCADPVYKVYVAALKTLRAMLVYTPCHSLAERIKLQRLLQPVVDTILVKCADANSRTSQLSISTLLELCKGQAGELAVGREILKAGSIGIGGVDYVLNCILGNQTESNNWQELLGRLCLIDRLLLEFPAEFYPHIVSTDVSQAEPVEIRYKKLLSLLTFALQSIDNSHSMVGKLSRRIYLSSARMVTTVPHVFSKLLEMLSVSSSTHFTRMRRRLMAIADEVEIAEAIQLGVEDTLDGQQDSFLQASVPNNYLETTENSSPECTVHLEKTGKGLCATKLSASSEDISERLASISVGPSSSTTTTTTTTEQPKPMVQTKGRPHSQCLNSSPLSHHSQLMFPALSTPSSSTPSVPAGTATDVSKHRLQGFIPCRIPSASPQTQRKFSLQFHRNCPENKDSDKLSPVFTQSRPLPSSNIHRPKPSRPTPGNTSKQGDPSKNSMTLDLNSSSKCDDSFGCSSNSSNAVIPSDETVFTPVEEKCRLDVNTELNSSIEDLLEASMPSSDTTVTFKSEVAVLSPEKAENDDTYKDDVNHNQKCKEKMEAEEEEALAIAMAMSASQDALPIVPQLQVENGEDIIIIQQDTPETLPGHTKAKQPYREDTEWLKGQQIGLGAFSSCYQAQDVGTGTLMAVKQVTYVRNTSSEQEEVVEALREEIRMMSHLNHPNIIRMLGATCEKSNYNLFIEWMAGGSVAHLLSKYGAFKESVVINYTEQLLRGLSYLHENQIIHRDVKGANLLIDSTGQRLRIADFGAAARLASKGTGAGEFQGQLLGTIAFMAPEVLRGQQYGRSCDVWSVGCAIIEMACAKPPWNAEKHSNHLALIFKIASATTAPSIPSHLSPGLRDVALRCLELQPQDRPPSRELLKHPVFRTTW"}, "HIPK2": {"biological_target": "HIPK2 (Homo sapiens (Human), UniProt Q9H2X6)"}, "MYLK4": {"biological_target": "MYLK4 (Homo sapiens (Human), UniProt Q86YV6)"}, "STK35": {"biological_target": "STK35 (Homo sapiens (Human), UniProt Q8TDR2)", "sequence (Q8TDR2 whole entry)": "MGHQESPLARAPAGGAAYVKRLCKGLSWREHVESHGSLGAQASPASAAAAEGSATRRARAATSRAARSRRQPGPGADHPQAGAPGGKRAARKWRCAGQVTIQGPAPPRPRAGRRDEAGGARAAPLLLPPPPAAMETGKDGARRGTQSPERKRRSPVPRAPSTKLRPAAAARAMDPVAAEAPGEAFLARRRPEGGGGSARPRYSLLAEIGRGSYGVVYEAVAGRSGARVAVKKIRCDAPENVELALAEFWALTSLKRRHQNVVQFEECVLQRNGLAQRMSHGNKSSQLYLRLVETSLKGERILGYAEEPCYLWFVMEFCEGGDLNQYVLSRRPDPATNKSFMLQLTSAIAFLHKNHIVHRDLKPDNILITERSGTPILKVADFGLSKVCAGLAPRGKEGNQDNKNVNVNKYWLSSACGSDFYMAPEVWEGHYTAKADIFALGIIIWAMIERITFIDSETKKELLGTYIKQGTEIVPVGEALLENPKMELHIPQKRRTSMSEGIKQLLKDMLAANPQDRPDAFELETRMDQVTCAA"}, "EPHB6": {"biological_target": "EPHB6 (Homo sapiens (Human), UniProt O15197)"}, "PAK2": {"biological_target": "PAK2 (Homo sapiens (Human), UniProt Q13177)"}, "PLK2": {"biological_target": "PLK2 (Homo sapiens (Human), UniProt Q9NYY3)"}, "HIPK1": {"biological_target": "HIPK1 (Homo sapiens (Human), UniProt Q86Z02)", "sequence (Q86Z02 whole entry)": "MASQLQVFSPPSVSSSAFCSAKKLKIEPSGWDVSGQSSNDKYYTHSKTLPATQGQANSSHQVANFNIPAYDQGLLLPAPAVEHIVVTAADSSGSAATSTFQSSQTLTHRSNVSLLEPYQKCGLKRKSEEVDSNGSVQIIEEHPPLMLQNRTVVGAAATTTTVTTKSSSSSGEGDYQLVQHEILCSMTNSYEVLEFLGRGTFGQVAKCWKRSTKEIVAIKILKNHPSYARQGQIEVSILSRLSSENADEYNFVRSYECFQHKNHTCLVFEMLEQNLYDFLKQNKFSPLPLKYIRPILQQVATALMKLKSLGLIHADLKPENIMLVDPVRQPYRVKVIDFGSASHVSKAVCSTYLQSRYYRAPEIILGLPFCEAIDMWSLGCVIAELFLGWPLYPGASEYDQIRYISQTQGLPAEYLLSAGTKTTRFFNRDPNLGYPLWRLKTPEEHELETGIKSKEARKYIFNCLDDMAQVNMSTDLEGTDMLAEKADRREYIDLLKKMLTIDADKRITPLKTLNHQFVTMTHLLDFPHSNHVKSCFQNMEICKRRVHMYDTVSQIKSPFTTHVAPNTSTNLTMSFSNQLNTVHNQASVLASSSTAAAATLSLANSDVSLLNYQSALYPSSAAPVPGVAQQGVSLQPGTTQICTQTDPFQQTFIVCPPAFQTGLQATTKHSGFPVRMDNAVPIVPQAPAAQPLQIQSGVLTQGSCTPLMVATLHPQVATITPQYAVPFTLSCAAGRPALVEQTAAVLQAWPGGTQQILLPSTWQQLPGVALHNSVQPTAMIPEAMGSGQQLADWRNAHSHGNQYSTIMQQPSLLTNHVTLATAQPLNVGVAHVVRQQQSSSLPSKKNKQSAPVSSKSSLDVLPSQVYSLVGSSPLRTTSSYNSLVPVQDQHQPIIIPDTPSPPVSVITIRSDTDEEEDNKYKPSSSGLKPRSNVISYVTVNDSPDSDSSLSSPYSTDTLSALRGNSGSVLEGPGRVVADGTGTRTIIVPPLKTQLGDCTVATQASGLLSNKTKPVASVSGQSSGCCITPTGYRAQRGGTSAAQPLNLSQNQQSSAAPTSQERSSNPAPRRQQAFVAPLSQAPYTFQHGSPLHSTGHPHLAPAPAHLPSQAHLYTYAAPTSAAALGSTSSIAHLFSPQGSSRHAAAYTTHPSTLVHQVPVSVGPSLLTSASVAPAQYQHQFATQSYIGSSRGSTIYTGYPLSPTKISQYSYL"}, "[1]": {"biological_target": "RSK4 (Kin.Dom.1-N-terminal) (Homo sapiens (Human), UniProt Q9UK32)"}, "CDC2L1": {"biological_target": "CDC2L1 (Homo sapiens (Human), UniProt P21127)"}, "KIT (D816H)": {"biological_target": "KIT (D816H) (Homo sapiens (Human), UniProt P10721, D816H)"}, "TGFBR1": {"biological_target": "TGFBR1 (Homo sapiens (Human), UniProt P36897)", "sequence (P36897 34-503)": "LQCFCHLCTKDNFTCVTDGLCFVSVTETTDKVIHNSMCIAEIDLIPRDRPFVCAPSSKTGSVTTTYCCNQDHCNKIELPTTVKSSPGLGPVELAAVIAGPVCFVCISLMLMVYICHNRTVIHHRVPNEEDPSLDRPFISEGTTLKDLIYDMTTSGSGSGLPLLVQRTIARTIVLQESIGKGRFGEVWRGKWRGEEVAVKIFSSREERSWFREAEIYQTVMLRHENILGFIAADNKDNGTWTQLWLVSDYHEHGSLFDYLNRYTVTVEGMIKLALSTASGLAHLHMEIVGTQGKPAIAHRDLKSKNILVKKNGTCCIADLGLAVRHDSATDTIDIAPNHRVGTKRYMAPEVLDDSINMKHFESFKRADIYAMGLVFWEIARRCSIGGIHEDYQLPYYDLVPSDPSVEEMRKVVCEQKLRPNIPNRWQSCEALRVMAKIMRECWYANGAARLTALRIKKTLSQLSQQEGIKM"}, "MAPKAPK2": {"biological_target": "MAPKAPK2 (Homo sapiens (Human), UniProt P49137)"}, "MKNK2": {"biological_target": "MKNK2 (Homo sapiens (Human), UniProt Q9HBH9)"}, "IKK-alpha": {"biological_target": "IKK-alpha (Homo sapiens (Human), UniProt O15111)"}, "HIPK4": {"biological_target": "HIPK4 (Homo sapiens (Human), UniProt Q8NE63)"}, "MRCKA": {"biological_target": "MRCKA (Homo sapiens (Human), UniProt Q5VT25)"}, "TESK1": {"biological_target": "TESK1 (Homo sapiens (Human), UniProt Q15569)"}, "CSNK1G1": {"biological_target": "CSNK1G1 (Homo sapiens (Human), UniProt Q9HCP0)", "sequence (Q9HCP0 whole entry)": "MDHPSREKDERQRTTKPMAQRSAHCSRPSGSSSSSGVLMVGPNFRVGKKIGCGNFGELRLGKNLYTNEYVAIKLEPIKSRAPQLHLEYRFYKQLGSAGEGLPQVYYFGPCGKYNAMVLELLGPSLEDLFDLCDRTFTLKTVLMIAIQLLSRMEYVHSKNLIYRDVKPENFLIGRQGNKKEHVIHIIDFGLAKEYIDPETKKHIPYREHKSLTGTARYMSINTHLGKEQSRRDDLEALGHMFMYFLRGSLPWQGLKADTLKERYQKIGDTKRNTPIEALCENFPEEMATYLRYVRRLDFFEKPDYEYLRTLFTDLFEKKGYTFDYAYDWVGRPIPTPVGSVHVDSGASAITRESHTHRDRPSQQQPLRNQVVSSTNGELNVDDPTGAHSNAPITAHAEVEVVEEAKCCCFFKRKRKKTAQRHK"}, "CAMK1": {"biological_target": "CAMK1 (Homo sapiens (Human), UniProt Q14012)", "sequence (Q14012 whole entry)": "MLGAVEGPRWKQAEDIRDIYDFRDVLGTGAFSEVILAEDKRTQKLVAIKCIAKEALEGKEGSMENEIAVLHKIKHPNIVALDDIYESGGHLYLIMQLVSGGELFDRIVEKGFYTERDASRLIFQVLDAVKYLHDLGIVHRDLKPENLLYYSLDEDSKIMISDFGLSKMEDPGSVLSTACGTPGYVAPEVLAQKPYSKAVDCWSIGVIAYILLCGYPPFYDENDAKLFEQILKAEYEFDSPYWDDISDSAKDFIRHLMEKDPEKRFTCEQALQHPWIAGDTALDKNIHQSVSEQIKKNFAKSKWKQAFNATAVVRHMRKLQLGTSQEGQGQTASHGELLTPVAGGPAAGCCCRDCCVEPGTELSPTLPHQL"}, "AMPK-alpha1": {"biological_target": "AMPK-alpha1 (Homo sapiens (Human), UniProt Q13131)", "sequence (Q13131 whole entry)": "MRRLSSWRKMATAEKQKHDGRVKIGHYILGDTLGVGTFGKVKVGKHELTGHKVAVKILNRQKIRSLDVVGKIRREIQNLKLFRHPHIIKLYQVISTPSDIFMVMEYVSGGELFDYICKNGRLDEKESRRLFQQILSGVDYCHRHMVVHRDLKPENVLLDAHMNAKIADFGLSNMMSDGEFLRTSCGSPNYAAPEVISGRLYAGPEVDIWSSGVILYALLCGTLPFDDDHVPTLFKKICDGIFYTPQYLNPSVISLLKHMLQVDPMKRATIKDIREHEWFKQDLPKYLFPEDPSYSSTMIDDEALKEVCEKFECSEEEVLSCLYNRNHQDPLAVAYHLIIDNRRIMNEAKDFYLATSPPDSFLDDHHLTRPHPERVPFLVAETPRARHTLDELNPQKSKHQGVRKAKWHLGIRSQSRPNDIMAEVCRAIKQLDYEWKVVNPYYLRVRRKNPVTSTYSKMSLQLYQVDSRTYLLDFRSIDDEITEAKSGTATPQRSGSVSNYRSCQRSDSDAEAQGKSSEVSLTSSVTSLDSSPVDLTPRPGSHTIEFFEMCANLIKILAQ"}, "HUNK": {"biological_target": "HUNK (Homo sapiens (Human), UniProt P57058)"}, "FER": {"biological_target": "FER (Homo sapiens (Human), UniProt P16591)"}},
  "data": [
    {"smiles": "COc1ccc(N2C(=O)N(c3c(C)cccc3C)Cc3cnc(Nc4ccc(N5CCN(C)CC5)cc4)nc32)c(OC)c1", "note": "[HG-11-136-01]", "values": [
      {"measurement": "KINOMEscan MET", "setting": "MET", "value": 66},
      {"measurement": "KINOMEscan EGFR (E746-A750del)", "setting": "EGFR (E746-A750del)", "value": 1.8},
      {"measurement": "KINOMEscan PAK1", "setting": "PAK1", "value": 3.7},
      {"measurement": "KINOMEscan CSNK1D", "setting": "CSNK1D", "value": 100},
      {"measurement": "KINOMEscan DYRK1A", "setting": "DYRK1A", "value": 30},
      {"measurement": "KINOMEscan DCAMKL1", "setting": "DCAMKL1", "value": 51},
      {"measurement": "KINOMEscan BIKE", "setting": "BIKE", "value": 8.8},
      {"measurement": "KINOMEscan MST1", "setting": "MST1", "value": 2.1},
      {"measurement": "KINOMEscan YES", "setting": "YES", "value": 0.05},
      {"measurement": "KINOMEscan NEK9", "setting": "NEK9", "value": 81},
      {"measurement": "KINOMEscan BRSK1", "setting": "BRSK1", "value": 100},
      {"measurement": "KINOMEscan FLT3 (D835Y)", "setting": "FLT3 (D835Y)", "value": 14},
      {"measurement": "KINOMEscan PIK3CA (H1047L)", "setting": "PIK3CA (H1047L)", "value": 96},
      {"measurement": "KINOMEscan PLK4", "setting": "PLK4", "value": 18},
      {"measurement": "KINOMEscan WEE2", "setting": "WEE2", "value": 82},
      {"measurement": "KINOMEscan MEK3", "setting": "MEK3", "value": 6.4},
      {"measurement": "KINOMEscan TEC", "setting": "TEC", "value": 2.6},
      {"measurement": "KINOMEscan CAMK2A", "setting": "CAMK2A", "value": 93},
      {"measurement": "KINOMEscan MAP3K1", "setting": "MAP3K1", "value": 73},
      {"measurement": "KINOMEscan HIPK2", "setting": "HIPK2", "value": 0.95},
      {"measurement": "KINOMEscan MYLK4", "setting": "MYLK4", "value": 60},
      {"measurement": "KINOMEscan STK35", "setting": "STK35", "value": 49},
      {"measurement": "KINOMEscan EPHB6", "setting": "EPHB6", "value": 0.7},
      {"measurement": "KINOMEscan PAK2", "setting": "PAK2", "value": 61},
      {"measurement": "KINOMEscan PLK2", "setting": "PLK2", "value": 21},
      {"measurement": "KINOMEscan HIPK1", "setting": "HIPK1", "value": 3.8},
      {"measurement": "KINOMEscan RSK4 (Kin.Dom.1-N-terminal)", "setting": "[1]", "value": 39},
      {"measurement": "KINOMEscan CDC2L1", "setting": "CDC2L1", "value": 79},
      {"measurement": "KINOMEscan KIT (D816H)", "setting": "KIT (D816H)", "value": 6},
      {"measurement": "KINOMEscan TGFBR1", "setting": "TGFBR1", "value": 33},
      {"measurement": "KINOMEscan MAPKAPK2", "setting": "MAPKAPK2", "value": 100},
      {"measurement": "KINOMEscan MKNK2", "setting": "MKNK2", "value": 99},
      {"measurement": "KINOMEscan IKK-alpha", "setting": "IKK-alpha", "value": 99},
      {"measurement": "KINOMEscan HIPK4", "setting": "HIPK4", "value": 51},
      {"measurement": "KINOMEscan MRCKA", "setting": "MRCKA", "value": 99},
      {"measurement": "KINOMEscan TESK1", "setting": "TESK1", "value": 0},
      {"measurement": "KINOMEscan CSNK1G1", "setting": "CSNK1G1", "value": 92},
      {"measurement": "KINOMEscan CAMK1", "setting": "CAMK1", "value": 82},
      {"measurement": "KINOMEscan AMPK-alpha1", "setting": "AMPK-alpha1", "value": 33},
      {"measurement": "KINOMEscan HUNK", "setting": "HUNK", "value": 28},
      {"measurement": "KINOMEscan FER", "setting": "FER", "value": 0.1}
    ]}
  ]
}
